Experimental data taken from patent publication US20240277713A1 (Kadmon Corporation, LLC, priority 2022, published 2024).

Assay: Pharmacokinetics in chronic GVHD patients
Assay type: in vivo, human

CC(C)NC(=O)COc1cccc(-c2nc(Nc3ccc4[nH]ncc4c3)c3ccccc3n2)c1 [belumosudil, 2-{3-[4-(1H-indazol-5-ylamino)-2-quinazolinyl]phenoxy}-N-(propan-2-yl) acetamide]
mean (% CV) steady-state AUC (200 mg once daily): 22700 (48%) h·ng/mL | mean (% CV) steady-state Cmax (200 mg once daily): 2390 (44%) ng/mL | pharmacokinetics with regard to age, sex, weight, or mild to moderate renal impairment (age 18 to 77 years, weight 38.6 to 143 kg): No clinically significant differences | Tmax (human, in vivo, oral, 200 mg once daily or twice daily, read-out: Median Tmax at steady state): 1.26 to 2.53 h | mean elimination half-life (patients, % CV 39%): 19 h | clearance (patients, % CV 46%): 9.83 L/h
